Patent publication US20260042764A1, “COMPOSITIONS AND METHODS FOR INHIBITION OF KRAS” (TheRas, Inc., priority 2022, published 2026)

Key:
[1] = tested on: Capan-2 cells (KRAS G12V); assay: Cell-based pERK HTRF assay in Capan-2 cells (Biological Example 5)
Procedure, shortened: (§1)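 Overnight-plated cells (2.5×10^4/well, 10% FBS); 2 h compound, 9-pt 3-fold curve, 0.25% DMSO, 37° C; lysis 30 min RT; Eu cryptate/D2 anti-pERK (T202/Y204) detection 24 h, 4° C; 665/620 ratio → % pERK → 4-PL EC50.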

RKN cells (KRAS G12V) [2] = assay: Cell-based pERK HTRF assay in RKN cells (Biological Example 5)
Procedure, shortened: as §1

A549 cells (KRAS G12S) [3] = assay: Cell-based pERK HTRF assay in A549 cells (Biological Example 5); conditions: Homo sapiens
Method: (§2) Biological Example 5: Cell-based PERK HTRF assay in AsPC-1, SW1900, HPAC, Capan-2, RKN, H358, HCT116, KP-2, H1573, A549, MKN1, and HT1080 cells
(§3) The inhibition of ERK phosphorylation, as measured using the HTRF Advanced Phospho-ERK 1/2 (Thr202/Tyr204) Detection Assay kit (Perkin Elmer), was used to determine the effectiveness of test compounds in disrupting KRAS-driven protein/effector signaling in cells.
(§4) On day 1, cells were seeded into 96-well plates at 2.5×10^4 cells/well in 100 μL of complete growth media supplemented with 10% fetal bovine serum (FBS) and incubated at 37° C., in the presence of 5% CO2.
(§5) On day 2, cells were treated with compounds diluted in DMSO at 0.25% final DMSO concentration. Compounds were dosed in a 9-point concentration curve with three-fold dilution between concentrations. Cells were incubated in the presence of compound for two hours at 37° C. Following this treatment period, cells were harvested by aspirating the media, adding 40 μL of kit-supplied 1x lysis buffer per well, and shaking for 30 minutes at 250 rpm at room temperature.
(§6) Following cell lysis, samples were homogenized by pipetting up and down twenty times and 16 μL of cell lysate per well was transferred from the 96-well cell culture plate to two wells of a 384-well detection plate. A complete detection buffer was prepared by diluting D2 and Eu Cryptate antibodies 1:20 in kit-provided detection solution, 4 μL of complete detection buffer was then added to each well with lysate. Plates were incubated with gentle rocking for 24 hours at 4° C.
(§7) Following this incubation period, plates were centrifuged at 500×g for one minute and analyzed on a CLARIOstar plate reader. Data was imported into Microsoft Excel and the signal from the 665 nm channel was divided by the signal from the 620 nm channel. % pERK was calculated as: […]
(§8) Data was imported to the Prism software package (Graphpad) and EC50 values were calculated using the log (inhibitor) vs, response—variable slopc (Four parameters) model.

SW1900 cells (KRAS G12D) [4] = assay: 3D Cell viability assay in SW1900 cells (Biological Example 6); assay type: cell-based; conditions: Homo sapiens; SW1990 (text: SW1900, KRAS G12D) spheroids, 72 hours
Procedure, shortened: (§9)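 First, 1000 cells per well are seeded in complete medium with 10% FBS and left undisturbed 48 h to form spheroids. Next, compounds are added as a 9-point, three-fold series (0.25% DMSO) for 72 h at 37 °C. Finally, CellTiter-Glo 3D lysis and luminescence yield EC50 values.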

HCT116 cells (KRAS G13D) [5] = assay: 3D Cell viability assay in HCT116 cells (Biological Example 6); assay type: cell-based; conditions: Homo sapiens, HCT-116; HCT116 (KRAS G13D) spheroids, 72 hours
Procedure, shortened: as §9

RKN cells (KRAS G12V) [6] = assay: 3D Cell viability assay in RKN cells (Biological Example 6); assay type: cell-based; conditions: RKN (KRAS G12V) spheroids, 72 hours
Procedure, shortened: as §9

HPAC cells (KRAS G12D) [7] = assay: Cell-based pERK HTRF assay in HPAC cells (Biological Example 5)
Procedure, shortened: as §1

SW1900 cells (KRAS G12D) [8] = assay: Cell-based pERK HTRF assay in SW1900 cells (Biological Example 5)
Procedure, shortened: as §1

AsPC-1 cells (KRAS G12D) [9] = assay: 3D Cell viability assay in AsPC-1 cells (Biological Example 6); assay type: cell-based; conditions: Homo sapiens, ASPC1; AsPC-1 (KRAS G12D) spheroids, 72 hours
Method: Biological Example 6: 3D Cell viability assay in AsPC-1, SW1900, HPAC, Capan-2, RKN, H358, HCT116, KP-2, H1573, A549, MKN1, and HT1080 cells
The inhibition of cellular viability as a result of test compound treatment in a spheroid assay was measured using the CellTiter-Glow 3D Cell Viability Assay (Promega).
On Day 1, 1000 cells per well were seeded in 150 μL of complete growth media supplemented with 10% fetal bovine serum (FBS) and incubated at 37° C., in the presence of 5% CO2 in 96-well ultra-low attachment microplates (Corning) for 48 hours undisturbed to allow spheroids to form.
Following spheroid formation, cells were treated with compounds diluted in DMSO at 0.25% final DMSO concentration. Compounds were dosed in a 9-point concentration curve with three-fold dilution between concentrations. Cells were incubated in the presence of compound for 72 hours at 37° C., in the presence of 5% CO2.
Following this incubation period, the kit-provided CTG reagent was allowed to equilibrate for 30 minutes at room temperature, 150 μL of equilibrated CTG reagent was added to each well, and the plate was sealed before shaking at 250 rpm for 10 minutes at room temperature to lyse the cells, 150 μL of lysate per well was transferred to a 96-well plate and luminescence was read on a CLARIOstar plate reader.
Data was imported into the Prism software package (Graphpad) and EC50 values were calculated using the log (inhibitor) vs, response—variable slope (Four parameters) model.

HCT116 cells (KRAS G13D) [10] = assay: Cell-based pERK HTRF assay in HCT116 cells (Biological Example 5); conditions: Homo sapiens, HCT-116
Method: as §2, §3, §4, §5, §6, §7, §8

H358 cells (KRAS G12C) [11] = assay: Cell-based pERK HTRF assay in H358 cells (Biological Example 5)
Procedure, shortened: as §1

A549 cells (KRAS G12S) [12] = assay: 3D Cell viability assay in A549 cells (Biological Example 6); assay type: cell-based; conditions: Homo sapiens; A549 (KRAS G12S) spheroids, 72 hours
Procedure, shortened: as §9

H1573 cells (KRAS G12A) = assay: 3D Cell viability assay in H1573 cells (Biological Example 6); assay type: cell-based; conditions: Homo sapiens, NCI-H1573; H1573 (KRAS G12A) spheroids, 72 hours
Procedure, shortened: as §9

AsPC-1 cells (KRAS G12D) [13] = assay: Cell-based pERK HTRF assay in AsPC-1 cells (Biological Example 5)
Method: as §2, §3, §4, §5, §6, §7, §8

HPAC cells (KRAS G12D) [14] = assay: 3D Cell viability assay in HPAC cells (Biological Example 6); assay type: cell-based; conditions: Homo sapiens, HPAC, 72 h, HPAC (KRAS G12D) spheroids
Procedure, shortened: as §9

H358 cells (KRAS G12C) [15] = assay: 3D Cell viability assay in H358 cells (Biological Example 6); assay type: cell-based; conditions: Homo sapiens, NCI-H358; H358 (KRAS G12C) spheroids, 72 hours
Procedure, shortened: as §9

HT1080 cells (NRAS) = assay: Cell-based pERK HTRF assay in HT1080 cells (Biological Example 5); conditions: Homo sapiens, HT-1080
Procedure, shortened: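 A two-hour compound treatment (0.25% DMSO) of cells seeded the previous day preceded lysis and HTRF phospho-ERK1/2 detection. EC50 values were fitted by variable-slope four-parameter regression.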

[16] = tested on: MKN1 cells (KRAS amplification); assay: Cell-based pERK HTRF assay in MKN1 cells (Biological Example 5)
Procedure, shortened: as §1

[17] = Homo sapiens, Capan-2, Capan-2 (KRAS G12V) cells
[18] = Homo sapiens, SW1990, SW1990 cells (text: SW1900, KRAS G12D)
[19] = Homo sapiens, NCI-H358, H358 (KRAS G12C) cells
[20] = Homo sapiens, ASPC1, AsPC-1 (KRAS G12D) cells
[21] = Homo sapiens, MKN-1, MKN cells (MKN1, KRAS amplification)

Compound | IC50 [1, 17] | IC50 (RKN cells (KRAS G12V) [2]) | IC50 (A549 cells (KRAS G12S) [3]) | IC50 (SW1900 cells (KRAS G12D) [4]) | IC50 (HCT116 cells (KRAS G13D) [5]) | IC50 (RKN cells (KRAS G12V) [6]) | IC50 (HPAC cells (KRAS G12D) [7]; Homo sapiens, HPAC) | IC50 (SW1900 cells (KRAS G12D) [8]; [18]) | IC50 (AsPC-1 cells (KRAS G12D) [9]) | IC50 (HCT116 cells (KRAS G13D) [10]) | IC50 (H358 cells (KRAS G12C) [11]; [19]) | IC50 (A549 cells (KRAS G12S) [12]) | IC50 (H1573 cells (KRAS G12A)) | IC50 (AsPC-1 cells (KRAS G12D) [13]; [20]) | IC50 (HPAC cells (KRAS G12D) [14]) | IC50 (H358 cells (KRAS G12C) [15]) | IC50 (HT1080 cells (NRAS)) | IC50 [16, 21] | other results
N#Cc1cnn2c1CN(c1nc(OC[C@@]34CCCN3C[C@H](F)C4)nc3c(F)c(-c4ccc(F)c5sc(N)c(C#N)c45)c(C(F)(F)F)cc13)CC2 [Compound 392] | 0.1 to 1 µM | ≤ 0.1 µM | 0.1 to 1 µM | ≤ 0.1 µM | 0.1 to 1 µM | ≤ 0.1 µM | ≤ 0.1 µM | ≤ 0.1 µM | ≤ 0.1 µM | ≤ 0.1 µM | ≤ 0.1 µM | 0.1 to 1 µM | 0.1 to 1 µM | > 1 µM | 0.1 to 1 µM | ≤ 0.1 µM | > 1 µM | ≤ 0.1 µM | 
CCC(=O)N1C[C@@H](N(CC)c2nc(OC[C@@]34CCCN3C[C@H](F)C4)nc3c(F)c(-c4ccc(F)c5sc(N)c(C#N)c45)c(C(F)(F)F)cc23)C[C@H]1C [Compound 442] | ≤ 0.1 µM | ≤ 0.1 µM | 0.1 to 1 µM | ≤ 0.1 µM | 0.1 to 1 µM | ≤ 0.1 µM | ≤ 0.1 µM | ≤ 0.1 µM | ≤ 0.1 µM | ≤ 0.1 µM | ≤ 0.1 µM | 0.1 to 1 µM | 0.1 to 1 µM | 0.1 to 1 µM | 0.1 to 1 µM | ≤ 0.1 µM | > 1 µM | ≤ 0.1 µM | 
C[C@@H]1[C@H](N(C)c2nc(OC[C@@]34CCCN3C[C@H](F)C4)nc3c(F)c(-c4ccc(F)c5sc(N)c(C#N)c45)c(C(F)(F)F)cc23)CC(=O)N1C [Compound 440] | 0.1 to 1 µM | 0.1 to 1 µM | 0.1 to 1 µM | ≤ 0.1 µM | > 1 µM | ≤ 0.1 µM | ≤ 0.1 µM | ≤ 0.1 µM | ≤ 0.1 µM | ≤ 0.1 µM | 0.1 to 1 µM | 0.1 to 1 µM | > 1 µM | > 1 µM | 0.1 to 1 µM | 0.1 to 1 µM | > 1 µM | ≤ 0.1 µM | 
N#Cc1c(N)sc2c(F)ccc(-c3c(C(F)(F)F)cc4c(N5CC6CC(C5)O6)nc(OC[C@@]56CCCN5C[C@H](F)C6)nc4c3F)c12 (single isomer, unassigned) [Compound 275] | ≤ 0.1 µM | ≤ 0.1 µM | ≤ 0.1 µM | ≤ 0.1 µM | 0.1 to 1 µM | ≤ 0.1 µM | 0.1 to 1 µM | ≤ 0.1 µM | > 1 µM | ≤ 0.1 µM | ≤ 0.1 µM | ≤ 0.1 µM | ≤ 0.1 µM | 0.1 to 1 µM | > 1 µM | ≤ 0.1 µM | > 1 µM | ≤ 0.1 µM | 
CCN(c1nc(OC[C@@]23CCCN2C[C@H](F)C3)nc2c(F)c(-c3ccc(F)c4sc(N)c(C#N)c34)c(C(F)(F)F)cc12)[C@H]1CCN(C(=O)C(C)C)C1 [Compound 332] |  | ≤ 0.1 µM | ≤ 0.1 µM | ≤ 0.1 µM | 0.1 to 1 µM | ≤ 0.1 µM |  |  | ≤ 0.1 µM | ≤ 0.1 µM |  | ≤ 0.1 µM | ≤ 0.1 µM |  | 0.1 to 1 µM | ≤ 0.1 µM | > 1 µM |  | IC50 ([1]; Capan-2 (KRAS G12V) cells): ≤ 0.1 µM; IC50 (HPAC cells (KRAS G12D) [7]): ≤ 0.1 µM; IC50 (SW1900 cells (KRAS G12D) [8]; SW1990 cells (text: SW1900, KRAS G12D)): ≤ 0.1 µM; IC50 (H358 cells (KRAS G12C) [11]; H358 (KRAS G12C) cells): ≤ 0.1 µM; IC50 (AsPC-1 cells (KRAS G12D) [13]; AsPC-1 (KRAS G12D) cells): ≤ 0.1 µM; IC50 ([16]; MKN cells (MKN1, KRAS amplification)): ≤ 0.1 µM
CCN(c1nc(OC[C@@]23CCCN2C[C@H](F)C3)nc2c(F)c(-c3ccc(F)c4sc(N)c(C#N)c34)c(C(F)(F)F)cc12)[C@H]1CCN(C(C)=O)C1 [Compound 262] | ≤ 0.1 µM | ≤ 0.1 µM | ≤ 0.1 µM | ≤ 0.1 µM | 0.1 to 1 µM | ≤ 0.1 µM | ≤ 0.1 µM | ≤ 0.1 µM | ≤ 0.1 µM | ≤ 0.1 µM | ≤ 0.1 µM | ≤ 0.1 µM | ≤ 0.1 µM | 0.1 to 1 µM | ≤ 0.1 µM | ≤ 0.1 µM | > 1 µM | ≤ 0.1 µM | 
CCN(c1nc(OC[C@@]23CCCN2C[C@H](F)C3)nc2c(F)c(-c3ccc(F)c4sc(N)c(C#N)c34)c(C(F)(F)F)cc12)[C@@H]1CCN(C(C)=O)C1 [Compound 268] | ≤ 0.1 µM | ≤ 0.1 µM | ≤ 0.1 µM | ≤ 0.1 µM | 0.1 to 1 µM | ≤ 0.1 µM | ≤ 0.1 µM | ≤ 0.1 µM | ≤ 0.1 µM | ≤ 0.1 µM | ≤ 0.1 µM | ≤ 0.1 µM | ≤ 0.1 µM | 0.1 to 1 µM | ≤ 0.1 µM | ≤ 0.1 µM | > 1 µM | ≤ 0.1 µM | 
